Where two headings read alike, the source gives them in different places.
How the values were obtained:
[1] = system: HT-29 cells; test: Measurement of inhibition of cancer cell proliferation (CellTiterGlo); assay type: cell-based; details: Homo sapiens, 72 hours
Description: Measurement of Inhibition of Cancer Cell Proliferation
HT-29 cells were split and 3000 cells in 100 μl of growth medium were added per well of a flat-bottom 96-well plate. A two-fold test compound solution in serum-free RPM1640 was made, starting at 5,000 nM. Then, 3-fold serial dilutions were made across the plate from well 1 to well 11. Well 12, the last well in a row on the plate, was left as untreated control. 100 μl compound solutions were then transferred to the wells, so the total volume of media was 200 μl per well. Plates were returned to a 37° C. incubator, and the cells were cultured for 72 hours. To measure cell proliferation after 72 hours, media was discarded from the plates, 50 μl/well of fresh medium was added, and 50 μl CellTiterGlo solution was added (Promega Cat#G7573). The plate was covered with a dark lid and incubated for 10 min. A sealing tape was applied to the bottom of the plate, and the plate was read in a luminescence plate reader. […] A 2-fold serial dilution was used to generate 8 cell densities from 50,000-390 cells per well in 50 μl media. 50 μl CellTiterGlo was added per well, and the plate was read in a luminescence plate reader after 10 min. The reading was plotted vs. cell number to generate a standard curve and the equation of the curve fit. The compound-treated sample luminescence readings were converted to cell numbers using the equation. The percent of inhibition, using untreated control as 100% growth, was then calculated. GI50 was then calculated by GraphPad Prism.

[2] = biological target: Erk1 (Homo sapiens (Human), UniProt P27361); test: Protein Mass Modification Assay (intact protein MALDI); assay type: binding
Procedure, shortened: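 Human Erk1 was incubated 60 min at room temperature with a 10-fold molar excess of compound, then analysed as intact protein by MALDI with sinapinic acid matrix. The centroid mass shift versus untreated protein was divided by compound molecular weight to give percent modified protein.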

[3] = system: ERK1 phosphorylation of its substrate RSK in HT29 cells; test: pRSK MSD Assay in HT29 cells; assay type: cell-based; details: Homo sapiens
Description: The protocol below describes an assay to measure the kinase activity of ERK1 to phosphorylate its substrate, RSK, in the presence of a test compound. This experiment was conducted using a Mesoscale Discovery plate. The day before the assay, HT29 cells were split and plated at 50,000 cells/well in complete growth media. After allowing cells to adhere, the media was removed and replaced with media containing 0.1% FBS and incubated overnight. Blank MDS plates were coated with 25 μl/well RSK capture antibody and incubated at 4° C. overnight. The next day, the media was removed and replaced with 100 μl of media containing a test compound and incubated for 120 minutes at 37° C. The media was removed and replaced with 55 μl of well lysis buffer with protease and phosphatase inhibitors provided in the kit, followed by incubation at 4° C. for 30 minutes. 50 μl of lysate was transferred to a blocked MSD plate, followed by incubation at room temperature for 2 hours under constant shaking. The plate was washed 3 times with MSD wash buffer (cat#R617TX), and 25 μl/well phospho-RSK (pRSK) detection antibody was added with an appropriate Sulfo-tagged anti-species detection antibody diluted in 1% BSA in MSD wash buffer. This mixture was incubated for 1 hour at room temperature under constant shaking. The plate was washed 3 times, and 150 μl 1×MSD read buffer was added, followed by signal detection in an MSD plate reader.

[4] = biological target: MEK1 activated ERK1 (Homo sapiens (Human), UniProt P27361); test: Omnia continuous-read kinase assay for potency against MEK1 activated ERK1; assay type: biochemical; details: MEK1 activated ERK1, WT, ATP at KM
Procedure, shortened: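 Apparent IC50 came from initial reaction slopes (RFU vs time) plotted against log inhibitor with a variable-slope fit. Reactions were started with ERK1 (4 nM final) added to 50 μM ATP, roughly at its appKM, and 10 μM Sox-conjugated ST17 peptide in 20 mM Tris pH 7.5, 5 mM MgCl2. Fluorescence was monitored every 71 seconds.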

[5] = HT-29, HT29 cells, read-out: ERK1 PRSK MSD HT29 EC50

MEK1 activated ERK1, sequence (P27361 whole entry): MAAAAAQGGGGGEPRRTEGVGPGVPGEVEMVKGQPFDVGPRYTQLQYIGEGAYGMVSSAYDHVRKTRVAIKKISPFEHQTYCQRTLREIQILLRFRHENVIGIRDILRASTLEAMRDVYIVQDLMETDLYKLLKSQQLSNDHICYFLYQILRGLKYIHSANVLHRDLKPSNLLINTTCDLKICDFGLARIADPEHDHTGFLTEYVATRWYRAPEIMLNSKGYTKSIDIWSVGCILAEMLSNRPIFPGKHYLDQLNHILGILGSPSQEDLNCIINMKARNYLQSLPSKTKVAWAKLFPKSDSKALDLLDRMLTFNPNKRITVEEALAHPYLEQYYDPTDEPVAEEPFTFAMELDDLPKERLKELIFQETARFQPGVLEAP
Erk1, sequence (P27361 whole entry, looked up): as the sequence (P27361 whole entry) above

Row | SMILES | GI50 [1] [µM] | ERK1 Mass Mod (%) [2] | EC50 ([3]; HT-29, read-out: ERK1 PRSK MSD HT29 EC50 (nM)) [nM] | EC50 [3, 5] [nM] | IC50 [4] [µM]
1 | C=CC(=O)Nc1ccccc1Nc1nc(Nc2ccc(N3CCN(C(C)=O)CC3)cc2OC)ncc1Cl [Compound I-149, N-(2-((2-((4-(4-acetylpiperazin-1-yl)-2-methoxyphenyl)amino)-5-chloropyrimidin-4-yl)amino)phenyl)acrylamide] | 0.101 to 0.5 | E (key: E: provided a mass modification of ≧70%; F: provided a mass modification of 31-69%; G: proived a mass modification ≦30%) |  |  | 
2 | C=CC(=O)Nc1ccccc1Nc1nc(Nc2cc(C(=O)NOCCO)ccc2C)ncc1Cl [Compound I-198, 3-((4-((2-acrylamidophenyl)amino)-5-chloropyrimidin-2-yl)amino)-N-(2-hydroxyethoxy)-4-methylbenzamide] | 0.101 to 0.5 | E (provided a mass modification of ≧70%) |  |  | 
3 | C=CC(=O)Nc1cc(F)ccc1Nc1nc(N[C@H]2CC[C@@H](F)CC2)ncc1C(F)(F)F [Compound I-8, N-(5-fluoro-2-((2-((cis-4-fluorocyclohexyl)amino)-5-(trifluoromethyl)pyrimidin-4-yl)amino)phenyl)acrylamide] | 0.501 to 0.999 | E (key: E: provided a mass modification of ≧70%; F: provided a mass modification of 31-69%; G: proived a mass modification ≦30%) | < 100 |  | 
4 | C=CC(=O)Nc1ccccc1Nc1nc(Nc2cc(N[C@H]3CC[C@@H](O)CC3)nc(OC)c2)ncc1C(F)(F)F [Compound I-292] | < 0.1 | E (provided a mass modification of ≧70%) |  | < 100 | 
5 | C=CC(=O)Nc1cc(C)ccc1Nc1nc(Nc2cc(N[C@H]3CC[C@@H](O)CC3)nc(OC)c2)ncc1C(F)(F)F [Compound I-326, N-(2-((2-((2-((cis-4-hydroxycyclohexyl)amino)-6-methoxypyridin-4-yl)amino)-5-(trifluoromethyl)pyrimidin-4-yl)amino)-5-methylphenyl)acrylamide] | < 0.1 | E (provided a mass modification of ≧70%) |  | < 100 | 
6 | C=CC(=O)Nc1ccccc1Nc1nc(N[C@H]2CC[C@H](OC)CC2)ncc1Cl [Compound I-100] | > 1 | F (provided a mass modification of 31-69%) |  | 501 to 999 | 
7 | C=CC(=O)Nc1cc(C)ccc1Nc1nc(Nc2nc(OC)ncc2C(F)(F)F)ncc1C(F)(F)F [Compound I-355, N-(2-((2-((2-methoxy-5-(trifluoromethyl)pyrimidin-4-yl)amino)-5-(trifluoromethyl)pyrimidin-4-yl)amino)-5-methylphenyl)acrylamide] | 0.101 to 0.5 | E (provided a mass modification of ≧70%) |  | < 100 | 
8 | COc1cc(Nc2ncc(C(F)(F)F)c(Nc3ccc(C)cc3N)n2)c(C)cn1 [Compound I-353, N^4-(2-amino-4-methylphenyl)-N^2-(2-methoxy-5-methylpyridin-4-yl)-5-(trifluoromethyl)pyrimidine-2,4-diamine] |  | G (proived a mass modification ≦30%) |  | > 1000 | > 1
9 | C=CC(=O)Nc1cc(C)ccc1Nc1nc(Nc2nc(OC)ncc2C)ncc1C(F)(F)F [Compound I-347, N-(2-((2-((2-methoxy-5-methylpyrimidin-4-yl)amino)-5-(trifluoromethyl)pyrimidin-4-yl)amino)-5-methylphenyl)acrylamide] |  | E (provided a mass modification of ≧70%) |  | 101 to 500 | 0.101 to 0.5
10 | C=CC(=O)Nc1cc(C)ccc1Nc1nc(Nc2ncc(F)c(OC)n2)ncc1C(F)(F)F [Compound I-356, N-(2-((2-((5-fluoro-4-methoxypyrimidin-2-yl)amino)-5-(trifluoromethyl)pyrimidin-4-yl)amino)-5-methylphenyl)acrylamide] | 0.101 to 0.5 | E (provided a mass modification of ≧70%) |  |  | 
11 | C/C=C/S(=O)(=O)Nc1cc(F)ccc1Nc1nc(N[C@H]2CCCN(C(=O)CO)C2)ncc1C(F)(F)F [Compound I-48, (S,E)-N-(5-Fluoro-2-((2-((1-(2-hydroxyacetyl)piperidin-3-yl)amino)-5-(trifluoromethyl)pyrimidin-4-yl)amino)phenyl)prop-1-ene-1-sulfonamide] |  | G (proived a mass modification ≦30%) |  | > 1000 | < 0.1
12 | C=C(C)S(=O)(=O)Nc1ccccc1Nc1nc(NC2CCC(=O)CC2)ncc1C(F)(F)F [Compound I-40, N-(2-((2-((4-Oxocyclohexyl)amino)-5-(trifluoromethyl)pyrimidin-4-yl)amino)phenyl)prop-1-ene-2-sulfonamide] |  | F (provided a mass modification of 31-69%) |  | > 1000 | < 0.1
13 | C=CC(=O)Nc1ccccc1Nc1nc(Nc2ccc(N3CCN(C(C)=O)CC3)cc2OC)ncc1C(F)(F)F [Compound I-66, N-(2-((2-((4-(4-Acetylpiperazin-1-yl)-2-methoxyphenyl)amino)-5-(trifluoromethyl)pyrimidin-4-yl)amino)phenyl)acrylamide] | 0.101 to 0.5 | E (key: E: provided a mass modification of ≧70%; F: provided a mass modification of 31-69%; G: proived a mass modification ≦30%) |  |  | 
14 | C=CC(=O)Nc1ccccc1Nc1nc(NC2CCOCC2)ncc1Cl [Compound I-108, N-(2-((5-chloro-2-((tetrahydro-2H-pyran-4-yl)amino)pyrimidin-4-yl)amino)phenyl) acrylamide] |  | E (provided a mass modification of ≧70%) |  | < 100 | < 0.1
15 | C=CC(=O)Nc1cc(C)ccc1Nc1nc(Nc2cnnc(Cl)c2)ncc1C(F)(F)F [Compound I-331, N-(2-((2-((6-chloropyridazin-4-yl)amino)-5-(trifluoromethyl)pyrimidin-4-yl)amino)-5-methylphenyl)acrylamide] |  | E (provided a mass modification of ≧70%) |  | 101 to 500 | > 1
16 | C=CC(=O)Nc1cc(C)ccc1Nc1nc(N[C@H]2CCCN(C(=O)CC)C2)ncc1C(F)(F)F [Compound I-41, (S)—N-(5-Methyl-2-((2-((1-propionylpiperidin-3-yl)amino)-5-(trifluoromethyl)pyrimidin-4-yl)amino)phenyl)acrylamide] |  | E (provided a mass modification of ≧70%) |  | 101 to 500 | < 0.1
17 | C=CC(=O)Nc1ccccc1Nc1nc(Nc2c[nH]nc2C)ncc1C(F)(F)F [Compound I-330, N-(2-((2-((3-methyl-1H-pyrazol-4-yl)amino)-5-(trifluoromethyl)pyrimidin-4-yl)amino)phenyl)acrylamide] |  | E (provided a mass modification of ≧70%) |  | > 1000 | > 1
18 | C=CC(=O)Nc1cc(OC)ccc1Nc1nc(Nc2ccc(N3CCN(C(C)=O)CC3)cc2OC)ncc1Cl [Compound I-152, N-(2-((2-((4-(4-acetylpiperazin-1-yl)-2-methoxyphenyl)amino)-5-chloropyrimidin-4-yl)amino)-5-methoxyphenyl)acrylamide] | 0.501 to 0.999 | E (provided a mass modification of ≧70%) |  |  | 
19 | C=CC(=O)Nc1cc(C)ccc1Nc1nc(Nc2cc(OC)cc(OC)c2)ncc1C(F)(F)F [Compound I-339, N-(2-((2-((3,5-dimethoxyphenyl)amino)-5-(trifluoromethyl)pyrimidin-4-yl)amino)-5-methylphenyl)acrylamide] |  | E (provided a mass modification of ≧70%) |  | 101 to 500 | > 1
